Laboratory results: patent US9249118B2, “Purifying crude furan 2,5-dicarboxylic acid by hydrogenation” (Eastman Chemical Company, priority 2012, dated 2016)

Assay: solubility of FDCA in water at different temperatures (FIG. 1)
Format: physicochemical
Details: ambient pressure, as the water temperature increases beyond 130° C. (FIG. 1)
Experimental: FIG. 1 depicts the solubility of FDCA in water at different temperatures.
Suitable dissolution temperatures are those effective to dissolve the desired amount of FDCA solids into solution. The hydrogenation solvent composition may be added at (by pre-heating) or heated in the dissolution zone to a temperature of at least 120° C. under a pressure and time sufficient to allow for at least 80 wt. % dissolution, although to reduce the time required for dissolution, it is desirable that the hydrogenation solvent composition temperature is at least 130° C., or at least 135° C., or at least 140° C., or at least 150° C.

solubility of FDCA in water: increases dramatically
Compound: O=C(O)c1ccc(C(=O)O)o1 [FDCA, Furan 2,5-dicarboxylic acid]
